Experimental data reported in patent US6737383B1, “Herbicidal oxadiazolidines” (priority 1999, dated 2004).

Tests used:
pigweed = experiment: Test B pre/postemergence pigweed; assay type: in vivo, Amaranthus retroflexus
Summary of the method: (§1)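 Test chemicals in a non-phytotoxic solvent mixture with surfactant were sprayed preemergence onto planted seeds and postemergence onto plants 2 to 18 cm tall (1- to 4-leaf stage). After twelve to sixteen days in a greenhouse, injury was visually rated against untreated controls from 0 (no effect) to 10 (complete control).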

soybean = experiment: Test B pre/postemergence soybean; assay type: in vivo, Glycine max
Summary of the method: as §1

smallflower flatsedge = experiment: Test B flood test smallflower flatsedge; assay type: in vivo, Cyperus difformis
Summary of the method: (§2)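 Each value is a visual injury score relative to controls, with 10 meaning complete control and 0 no effect. Evaluation took place twelve to sixteen days after the 2-leaf-stage plants were treated and kept in the greenhouse.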

surinam grass = experiment: Test B pre/postemergence surinam grass; assay type: in vivo, Brachiaria decumbens
Summary of the method: as §1

rice = experiment: Test B flood test rice; assay type: in vivo, Oryza sativa
Summary of the method: as §2

wild oat = experiment: Test B pre/postemergence wild oat; assay type: in vivo, Avena fatua
Summary of the method: as §1

purple nutsedge = experiment: Test B pre/postemergence purple nutsedge; assay type: in vivo, Cyperus rotundus
Summary of the method: as §1

wheat = experiment: Test B pre/postemergence wheat; assay type: in vivo, Triticum aestivum
Summary of the method: as §1

cocklebur = experiment: Test B pre/postemergence cocklebur; assay type: in vivo, Xanthium strumarium
Summary of the method: as §1

velvetleaf = experiment: Test B pre/postemergence velvetleaf; assay type: in vivo, Abutilon theophrasti
Summary of the method: as §1

corn = experiment: Test B pre/postemergence corn; assay type: in vivo, Zea mays
Summary of the method: as §1

duck salad = experiment: Test B flood test duck salad; assay type: in vivo, Heteranthera limosa
Summary of the method: as §2

sugar beet = experiment: Test B pre/postemergence sugar beet; assay type: in vivo, Beta vulgaris
Summary of the method: as §1

bedstraw = experiment: Test B pre/postemergence bedstraw; assay type: in vivo, Galium aparine
Summary of the method: as §1

giant foxtail = experiment: Test B pre/postemergence giant foxtail; assay type: in vivo, Setaria faberii
Summary of the method: as §1

rape = experiment: Test B pre/postemergence rape; assay type: in vivo, Brassica napus
Summary of the method: as §1

[1] = Postemergence, Rate 62 g/ha, scale 0 to 10, 0 is no effect, 10 is complete control
[2] = Postemergence, Rate 125 g/ha, scale of 0 to 10 where 0 is no effect and 10 is complete control
[3] = Postemergence, Rate 250 g/ha, scale of 0 to 10, 0 is no effect, 10 is complete control
[4] = Preemergence, Rate 62 g/ha, scale 0 to 10 (0 no effect, 10 complete control)
[5] = Preemergence, Rate 125 g/ha, scale of 0 to 10 where 0 is no effect and 10 is complete control
[6] = Preemergence, Rate 250 g/ha, scale 0 to 10 (0 no effect, 10 complete control)
[7] = Preemergence, Rate 500 g/ha, scale of 0 to 10 where 0 is no effect and 10 is complete control
[8] = Rate 62 g/ha, flood test species, Pre-emergence, visual evaluation after twelve to sixteen days
[9] = Rate 125 g/ha, under heading Pre-emergence, flood test species, visual evaluation after twelve to sixteen days
[10] = Rate 250 g/ha, Pre-emergence (flood test species), scale 0 to 10, 0 is no effect, 10 is complete control
[11] = Rate 500 g/ha, Pre-emergence section of Table B, 0 to 10 scale (0 no effect, 10 complete control)
[12] = Postemergence, Rate 500 g/ha, scale of 0 to 10 where 0 is no effect and 10 is complete control

`CC(=O)NCn1c(=O)on(C(=O)N(c2ccccc2)C(C)C)c1=O` [Compound 621] was tested, and the “Plant response rating, Redroot pigweed” value (pigweed; [1]) was 0, the “Plant response rating, Redroot pigweed” value (pigweed; [2]) was 0 and the “Redroot pigweed plant response rating” value (pigweed; [3]) was 0. For the same molecule, the “Redroot pigweed plant response rating” value (pigweed; [4]) was 0, the “Redroot pigweed plant response rating” value (pigweed; [5]) was 0 and the “Plant response rating, Redroot pigweed” value (pigweed; [6]) was 0. For the same molecule, the “Plant response rating, Redroot pigweed” value (pigweed; [7]) was 0, the “Plant response rating, Soybean” value (soybean; [1]) was 1 and the “Plant response rating, Soybean” value (soybean; [2]) was 5. For the same molecule, the “Soybean plant response rating” value (soybean; [3]) was 5, the “Soybean plant response rating” value (soybean; [4]) was 0 and the “Soybean plant response rating” value (soybean; [5]) was 0. For the same molecule, the “Plant response rating, Soybean” value (soybean; [6]) was 0, the “Plant response rating, Soybean” value (soybean; [7]) was 3 and the “Plant response rating, S. Flatsedge (0 to 10 scale, 0 is no effect, 10 is complete control)” value (smallflower flatsedge; [8]) was 0. The “S. Flatsedge plant response rating (0 to 10 scale, 0 is no effect, 10 is complete control)” value (smallflower flatsedge; [9]) was 0, the “S. Flatsedge plant response rating” value (smallflower flatsedge; [10]) was 0 and the “S. Flatsedge plant response rating” value (smallflower flatsedge; [11]) was 0. For the same molecule, the “Plant response rating, B. signalgrass” value (surinam grass; [1]) was 0, the “Plant response rating, B. signalgrass” value (surinam grass; [2]) was 0 and the “B. signalgrass plant response rating” value (surinam grass; [3]) was 0. For the same molecule, the “Plant response rating, B. signalgrass” value (surinam grass; [12]) was 0, the “B. signalgrass plant response rating” value (surinam grass; [4]) was 0 and the “B. signalgrass plant response rating” value (surinam grass; [5]) was 0. For the same molecule, the “Plant response rating, B. signalgrass” value (surinam grass; [6]) was 0, the “B. signalgrass plant response rating” value (surinam grass; [7]) was 0 and the “Plant response rating, Rice (0 to 10 scale, 0 is no effect, 10 is complete control)” value (rice; [8]) was 0. For the same molecule, the “Rice plant response rating (0 to 10 scale, 0 is no effect, 10 is complete control)” value (rice; [9]) was 0, the “Rice plant response rating” value (rice; [10]) was 0 and the “Rice plant response rating” value (rice; [11]) was 0. The “Plant response rating, Wild oats” value (wild oat; [1]) was 0, the “Plant response rating, Wild oats” value (wild oat; [2]) was 0 and the “Wild oats plant response rating” value (wild oat; [3]) was 0. For the same molecule, the “Wild oats plant response rating” value (wild oat; [4]) was 0, the “Wild oats plant response rating” value (wild oat; [5]) was 0 and the “Plant response rating, Wild oats” value (wild oat; [6]) was 0. For the same molecule, the “Plant response rating, Wild oats” value (wild oat; [7]) was 0, the “Plant response rating, Nutsedge” value (purple nutsedge; [1]) was 0 and the “Plant response rating, Nutsedge” value (purple nutsedge; [2]) was 0. For the same molecule, the “Nutsedge plant response rating” value (purple nutsedge; [3]) was 0, the “Plant response rating, Nutsedge” value (purple nutsedge; [12]) was 0 and the “Nutsedge plant response rating” value (purple nutsedge; [4]) was 0. The “Nutsedge plant response rating” value (purple nutsedge; [5]) was 0, the “Plant response rating, Nutsedge” value (purple nutsedge; [6]) was 0 and the “Plant response rating, Nutsedge” value (purple nutsedge; [7]) was 0. The “Plant response rating, Wheat” value (wheat; [1]) was 0, the “Plant response rating, Wheat” value (wheat; [2]) was 0 and the “Wheat plant response rating” value (wheat; [3]) was 0. The “Wheat plant response rating” value (wheat; [4]) was 0, the “Wheat plant response rating” value (wheat; [5]) was 0 and the “Plant response rating, Wheat” value (wheat; [6]) was 0. The “Plant response rating, Wheat” value (wheat; [7]) was 0, the “Plant response rating, Cocklebur” value (cocklebur; [1]) was 0 and the “Plant response rating, Cocklebur” value (cocklebur; [2]) was 0. For the same molecule, the “Cocklebur plant response rating” value (cocklebur; [3]) was 0, the “Plant response rating, Cocklebur” value (cocklebur; [12]) was 0 and the “Cocklebur plant response rating” value (cocklebur; [4]) was 0. For the same molecule, the “Cocklebur plant response rating” value (cocklebur; [5]) was 0, the “Plant response rating, Cocklebur” value (cocklebur; [6]) was 0 and the “Plant response rating, Cocklebur” value (cocklebur; [7]) was 0. For the same molecule, the “Plant response rating, Velvetleaf” value (velvetleaf; [1]) was 0, the “Plant response rating, Velvetleaf” value (velvetleaf; [2]) was 0 and the “Velvetleaf plant response rating” value (velvetleaf; [3]) was 0. For the same molecule, the “Velvetleaf plant response rating” value (velvetleaf; [4]) was 0, the “Velvetleaf plant response rating” value (velvetleaf; [5]) was 0 and the “Plant response rating, Velvetleaf” value (velvetleaf; [6]) was 0. For the same molecule, the “Plant response rating, Velvetleaf” value (velvetleaf; [7]) was 0, the “Plant response rating, Corn” value (corn; [1]) was 0 and the “Plant response rating, Corn” value (corn; [2]) was 0. For the same molecule, the “Corn plant response rating” value (corn; [3]) was 0, the “Plant response rating, Corn” value (corn; [12]) was 0 and the “Corn plant response rating” value (corn; [4]) was 0. For the same molecule, the “Corn plant response rating” value (corn; [5]) was 0, the “Plant response rating, Corn” value (corn; [6]) was 0 and the “Plant response rating, Corn” value (corn; [7]) was 0. The “Plant response rating, Ducksalad (0 to 10 scale, 0 is no effect, 10 is complete control)” value (duck salad; [8]) was 0, the “Ducksalad plant response rating (0 to 10 scale, 0 is no effect, 10 is complete control)” value (duck salad; [9]) was 0 and the “Ducksalad plant response rating” value (duck salad; [10]) was 0. The “Ducksalad plant response rating” value (duck salad; [11]) was 0, the “Plant response rating, Sugarbeets” value (sugar beet; [1]) was 0 and the “Plant response rating, Sugarbeets” value (sugar beet; [2]) was 0. The “Sugarbeets plant response rating” value (sugar beet; [3]) was 0, the “Sugarbeets plant response rating” value (sugar beet; [4]) was 0 and the “Sugarbeets plant response rating” value (sugar beet; [5]) was 0. For the same molecule, the “Plant response rating, Sugarbeets” value (sugar beet; [6]) was 0, the “Plant response rating, Sugarbeets” value (sugar beet; [7]) was 0 and the “Plant response rating, Bedstraw” value (bedstraw; [2]) was 0. The “Bedstraw plant response rating” value (bedstraw; [4]) was 0, the “Bedstraw plant response rating” value (bedstraw; [5]) was 0 and the “Plant response rating, Bedstraw” value (bedstraw; [6]) was 0. For the same molecule, the “Bedstraw plant response rating” value (bedstraw; [7]) was 0, the “Plant response rating, Giant foxtail” value (giant foxtail; [1]) was 0 and the “Plant response rating, Giant foxtail” value (giant foxtail; [2]) was 0. For the same molecule, the “Giant foxtail plant response rating” value (giant foxtail; [3]) was 1, the “Plant response rating, Giant foxtail” value (giant foxtail; [12]) was 7 and the “Giant foxtail plant response rating” value (giant foxtail; [4]) was 0. For the same molecule, the “Giant foxtail plant response rating” value (giant foxtail; [5]) was 7, the “Plant response rating, Giant foxtail” value (giant foxtail; [6]) was 7 and the “Plant response rating, Giant foxtail” value (giant foxtail; [7]) was 10. The “Plant response rating, Rape” value (rape; [1]) was 0, the “Plant response rating, Rape” value (rape; [2]) was 0 and the “Rape plant response rating” value (rape; [3]) was 0. For the same molecule, the “Plant response rating, Rape” value (rape; [12]) was 0, the “Rape plant response rating” value (rape; [4]) was 0 and the “Rape plant response rating” value (rape; [5]) was 0. The “Plant response rating, Rape” value (rape; [6]) was 0 and the “Plant response rating, Rape” value (rape; [7]) was 0.
